From a melting point compilation (Tetko et al.; mined from patent text by program, amines drawn as free bases though some values may be those of a salt)

Row | Structure (SMILES) | melting point
1 | NC(=Nc1ccc(N2CCNCC2)cc1)c1cccs1 | 180 °C
2 | CC(NC(=S)NCC(COC(=O)C(C)(C)C)Cc1ccc(C(C)(C)C)cc1)c1ccc(NS(C)(=O)=O)cc1 (stereo unspecified) | 87 °C
3 | ClC(c1ccccc1)(c1ccccc1)c1ccc2ccccc2c1 | 92 to 93 °C
4 | O=c1ccn(-c2ccc([N+](=O)[O-])cc2)c(=O)[nH]1 | > 300 °C
5 | COc1cccc(NN)n1 | 30 to 40 °C
6 | c1ccc(Oc2ccc(C(c3ccccc3)(c3ccccn3)n3ccnc3)cc2)cc1 (stereo unspecified) | 137 to 140 °C
7 | O=C1OC(=O)c2nc3ccccc3cc21 | 225 to 228 °C
8 | CN(C)C1(c2ccccc2)CCC(C#N)(N2CCCC2)CC1 (stereo unspecified) | 136 to 142 °C
9 | Cc1cc(Br)cc2ccc(Cl)nc12 | 114 to 116 °C
10 | CSc1cc(C)nc(SC)c1[N+](=O)[O-] | 172 to 176 °C
11 | CC1(C)OC(=C(C#N)C#N)C(C#N)=C1C=Cc1cc2c3c(c1)CCCN3CCC2 | 243 °C
12 | Cc1ccccc1N=c1scc(-c2ccc(Cl)c(S(=O)(=O)N(C)C)c2)n1C | 158 to 162 °C
13 | CC(=O)N1CCCc2ccc(S(=O)(=O)C[N+](=O)[O-])cc21 | 155 °C
14 | CC1(C)Oc2c([N+](=O)[O-])ccc(Cl)c2C1Br (stereo unspecified) | 103 to 104 °C
15 | O=C(CN1CCNCC1)Nc1ccccc1 | 71 to 72 °C
16 | CCOP(=O)(Cc1cc(C)cc(C)n1)OCC | 109 to 112 °C
17 | NC(=O)c1sc2nccc(N3CCCN(c4ccccc4)CC3)c2c1N | 215 to 218 °C
18 | Nc1ccc(-c2nc3cc(OCc4ccccc4)ccc3s2)c(Cl)c1 | 119 to 121 °C
19 | Cc1ccccc1-n1c(Cn2cnc3c(N)ncnc32)nc2cccc(C)c2c1=O | 282 to 283 °C
20 | COc1cc2c(cc1OC)CN(c1nc(N)c3cc(OC)c(OC)cc3n1)CCC2 | 122 to 124 °C
21 | O=C1CCCC(=O)C1C(=O)c1ccccc1[N+](=O)[O-] | 132 to 135 °C
22 | CC(=NOCCOc1ccc(CC2SC(=O)NC2=O)cc1)c1ccc(-c2ccc(C(F)(F)F)cc2)cc1 (stereo unspecified) | 165 to 166 °C
23 | C=CCNC(=O)C1=C(C(=O)Nc2ccc(Br)cc2F)CCCC1 | 167 to 169 °C

Row | Structure (SMILES) | melting point
24 | COc1c(C)cnc(CS(=O)c2nc3c(C)c(OC)c(C)cc3[nH]2)c1C (stereo unspecified) | 137 °C
25 | CCOC(=O)C(=O)c1cn(Cc2ccccc2)c2cc(-c3ccc(C(F)(F)F)cc3)ccc12 | 109 to 110 °C
26 | CC1=C(C(=O)OC2CC(C)(C)N(C)C(C)(C)C2)CC(C(=O)OC2CC(C)(C)N(C)C(C)(C)C2)=C(C)N1 | 232 °C
27 | CC(=O)OCc1c(C(=O)C(=O)O)c2cc(-c3ccc(OC(F)(F)F)cc3)ccc2n1Cc1ccc(C)cc1 | 79 to 80 °C
28 | CNC(NCCSCc1nccc(NC(N)=NCC(F)(F)F)n1)=C(C#N)C#N | 173 to 174 °C
29 | Nc1c(F)c(N2C[C@@H]3CCCN[C@@H]3C2)c(F)c2c1c(=O)c(C(=O)O)cn2[C@@H]1C[C@@H]1F | 145 to 149 °C
30 | Clc1ccc2c(n1)C(c1ccccc1Cl)NCc1nncn1-2 (stereo unspecified) | 206 to 208 °C
31 | Cc1ccc(C(=O)N2CCOCC2)cc1[N+](=O)[O-] | 108 to 110 °C
32 | CC(=O)NCCCC(=O)N1CCCC(=O)c2ccc(Cl)cc2CCC1=O | 135 to 136 °C
33 | C#CCC(C1=Nc2cnccc2C(=O)C1Nc1ccccc1)N(CCCNC(=O)OCc1ccccc1)C(=O)c1cccc(Cl)c1F (stereo unspecified) | 100 to 102 °C
34 | O=C1O[C@@H](Cn2ccnn2)CN1c1ccc(-c2ccc(C3=NOC(CNCCc4ccncc4)C3)nc2)c(F)c1 (stereo partly specified) | 181 °C
35 | C1=Nc2cc3c(cc2=C1)N=c1ccccc1=3 | 210 to 211 °C
36 | CCCCCC(=O)Nc1nc2c(ncn2CCC(CO)CO)c(=O)[nH]1 | 86 to 88 °C
37 | O=C1NCCCN2c3ccccc3CC12 (stereo unspecified) | 159 °C
38 | CC1OC(OC2C=C(Br)C(=O)C(C)O2)C=C(Br)C1=O (stereo unspecified) | 125 °C
39 | N=c1[nH]ccn1Cc1ccc(Cl)nc1 | 188 °C
40 | CC(C)(C)N1CCN(Cc2ccc([N+](=O)[O-])cc2)S1(=O)=O | 113 °C
41 | CS(=O)(=O)c1ccc(C(=O)O)c(Cl)c1F | 204 °C
42 | Cc1nonc1-n1cc(C(=O)O)c(=O)c2c(C)c(F)c(F)cc21 | 200 to 202 °C
43 | C#CCN(Cc1cn(C(C)(C)C)nn1)Cc1cn(C(C)(C)C)nn1 | 126 °C
44 | O=C(O)C1CC(=O)N(c2ccccc2)N1 (stereo unspecified) | 197 to 199 °C
45 | COc1nnc(Cl)c2c1CCCC2 | 117 to 119 °C
46 | Cc1ccc(-c2c(-c3ccc(S(C)(=O)=O)cc3)cnn(CC(F)(F)F)c2=O)cc1 | 154 to 156 °C

The remaining lines, values ahead:

Row | melting point | Structure (SMILES)
47 | 51 to 53 °C | Cc1noc2cccc(OCC3CO3)c12 (stereo unspecified)
48 | 134 to 138 °C | COc1ccccc1C(Cn1ccnc1)S(=O)(=O)c1ccc(C(=O)O)cc1 (stereo unspecified)
49 | 236 to 238 °C | CCn1ncc2c(NCC3CCCC(O)C3)c3cc([N+](=O)[O-])ccc3nc21 (stereo unspecified)
50 | 88 to 90 °C | O=C(C(=O)c1cccc(Br)c1)c1ccncc1
51 | 208 to 210 °C | COc1ccc(N2C(=S)N(c3ccc(Oc4ccccc4)cc3)C(=O)C2C)cc1 (stereo unspecified)
52 | 116 to 117 °C | C=Cc1cnc2c([N+](=O)[O-])cccc2c1
53 | 124 to 125 °C | CCCn1nnc(NC(=O)C(c2ccccc2)c2ccccc2)n1
54 | 105 °C | CCCCOc1ccc(N2CCN(c3cccc(C)c3)CC2)nn1
55 | 240 to 242 °C | Cn1c(COc2ccc(CC3SC(=O)NC3=O)cc2)nc2ccc(O)nc21 (stereo unspecified)
56 | 213 to 214 °C | COc1ccccc1N1CCN(CCc2[nH]c(=O)[nH]c2-c2ccc(F)cc2)CC1
57 | 183 °C | c1ccc(-c2[nH]c3ccccc3c2CCC2CCNCC2)cc1
58 | 202 to 204 °C | CCCCc1c(/C=C/C(=O)O)ccc2c(OC)cccc12
59 | 124 to 125 °C | CC(=O)NC(=O)C(=O)c1ccccc1
60 | 108 to 111 °C | CC1=C(C)c2cc(Br)ccc2Sc2ccccc21
61 | 163 °C | Cc1cccc(NC(=O)NCC(=O)N(CC(=O)N(C)c2ccc(F)c(F)c2)c2ccccc2)c1
62 | 171 to 174 °C | CN(C)Cc1cn(CCC(=O)O)c(=S)n1C1CCc2ccccc2C1 (stereo unspecified)
63 | 108 to 110 °C | CCc1ccccc1OC(CC)C(=O)OC1CC(O)C=C2C=CC(C)C(CCC3CC(O)CC(=O)O3)C21 (mixture of isomers)
64 | 104 to 106 °C | CC(O)(C#Cc1ccccc1)C(=O)O (stereo unspecified)
65 | 193 to 195 °C | CCOCc1nc2c(N)nc3cc(-c4ccc(F)c(F)c4)cnc3c2n1CC(C)(C)O
66 | 257 to 258 °C | COc1c(OCCCC(=O)O)ccc2c1N=C(C=C(O)c1cccnc1)N1CCN=C21
67 | 114 to 116 °C | O=C(O)C(Oc1ccccc1)c1ccc(Oc2ccc(Cl)cc2)cc1 (stereo unspecified)
68 | 206 to 207 °C | CNC(=O)Nc1cc(OC)c(-c2ccc(C[C@H](NC(=O)c3c(Cl)cccc3Cl)C(=O)O)cc2)c(OC)c1
69 | 160 to 165 °C | COc1ccc(CCC(N[C@@H](C)C(=O)N(CC(=O)O)C2Cc3ccccc3C2)C(=O)O)cc1OC (stereo partly specified)
70 | 172 °C | CCOC(=O)c1c(Cl)c2cccnc2[nH]c1=O
71 | 131 to 132 °C | CCOC(=O)c1ccc(C(C(N)=O)C(C)c2cc(OC)ccc2N2CCCCC2)cc1 (stereo unspecified)
72 | 34 °C | COc1cccnc1Br
73 | 209 to 210 °C | Cc1oc(-c2ccco2)nc1/C=C/c1ccc(C=O)cc1
74 | 171 °C | COc1ccccc1N(CC(=O)OC(C)(C)C)C(=O)CNC(=O)Nc1cccc(C)c1

Row | melting point | Structure (SMILES)
75 | 202 to 205 °C | CC1(c2ccc([N+](=O)[O-])cc2)Cc2cc(OCC(=O)O)c(Cl)c(Cl)c2C1=O (stereo unspecified)
76 | 230 to 231 °C | Cc1nc2ccccc2n(-c2ccc(N(C)C)cc2)c1=O
77 | 95 to 97 °C | COc1ccc2c(c1)c(CC(=O)O)c(C)n2C(=O)c1ccc(Cl)c(Cl)c1
78 | 175 °C | CCCCC1(CCCC)CS(=O)(=O)c2ccc(N(C)C)cc2C(c2ccc(OCc3ccc(CN(CC(=O)O)CC(=O)O)cc3)cc2)C1O (stereo unspecified)
79 | 195 to 196 °C | Cc1cc(C2=CC(=O)c3cccc(O)c3C2=O)c(C)[nH]1
80 | 129 to 133 °C | COc1cc(C(=O)NS(=O)(=O)c2ccccc2C)ccc1Cc1c(Cl)n(C)c2ccc(CC3CCN(C)C3=O)cc12 (stereo unspecified)
81 | 73.5 to 76.2 °C | COc1ccc(CCC(=O)CC(=O)CCc2ccc(OC)cc2)cc1
82 | 67 to 71 °C | Nc1sc2c(c1C(=O)c1ccccn1)CCN(Cc1ccccc1)C2
83 | 126 to 127 °C | COc1cc(COc2nn(-c3ccccc3)cc2C(C[N+](=O)[O-])C[N+](=O)[O-])ccc1OCc1nc(-c2ccco2)oc1C
84 | 124 to 133 °C | CCOC(=O)c1c(N2CCN(C(=O)c3cccs3)CC2)c2cc(F)cnc2[nH]c1=O
85 | 114 °C | CCOCCc1c(-c2ccccc2)n2nnnc2n2ncnc12
86 | 92 to 98 °C | CC(O)C1C(=O)N2C1=CC(=O)C2C(=O)OCc1ccc([N+](=O)[O-])cc1 (stereo unspecified)
87 | 162 to 164 °C | CCOCc1nc2c(N)nc3ccccc3c2n1NC(C)C
88 | 196 to 198 °C | Cc1cc(-c2cccnc2)n2ncc(C(=O)c3ccccc3)c2n1
89 | 123 to 125 °C | COC(=O)CCn1cc(-c2cccnc2)c2cc([N+](=O)[O-])ccc21
90 | 160 to 162 °C | Cc1ccc2c(-c3ccoc3)cc(=O)oc2c1
91 | 193 to 194 °C | CC(=O)Oc1ccc2nc(S(N)(=O)=O)sc2c1
92 | 233 to 235 °C | CCNc1nc2c(N)nc3ccccc3c2n1CC(C)(C)O
93 | 169 to 171 °C | CC1=Cc2cc(C(=O)O)ccc2OC1(C)C
94 | 151 to 152 °C | CCCCc1ncc(CNC(Cc2cccs2)C(=O)O)n1Cc1ccc(C(=O)O)cc1 (stereo unspecified)
95 | 256 to 257 °C | CC(C)Cc1nc2ccc(O)cc2c(-c2ccccc2F)c1C#N
96 | 195 to 196 °C | O=C(NN=Cc1ccc2ccccc2n1)c1ccccc1[N+](=O)[O-]
97 | 98 to 99 °C | CCOC(C)O[C@H]1C(=O)N[C@H]1C=Cc1ccccc1 (stereo partly specified)
98 | 94 to 96 °C | C=C(CC)C(=O)c1ccc(OCC(=O)NCCCCF)c(Cl)c1Cl
99 | 77 to 78 °C | CCOC(=O)Cn1ncc(CC)c1O
100 | 156 to 158 °C | CSc1nccc(C(=NO)C(=O)c2cccc(Br)c2)n1
101 | 218 to 220 °C | CCC(O)c1cccc(S(N)(=O)=O)c1 (stereo unspecified)
